Patent US11180452B2, “Methods and compositions for selectively inhibiting pathogenic microbes” (priority 2019, dated 2021)
Values after ≈ are worked out from the molar mass of the structure shown. Like-named read-outs stand apart in the source and are kept apart here.

Columns and labels:
NoSpin HepaRG cells = test: HepaRG cytotoxicity, MTT assay EC50; format: cell-based, human; details: Homo sapiens, HepaRG; cytotoxicity EC50, Table 9
Experimental: Additionally, the antimicrobial compounds were analyzed for cytotoxicity. […] We utilized the standard MTT assay (Promega CellTiter 96) and GraphPad Prism 7 software to determine EC50 values for each analogue. Briefly, 20,000 HepG2 cells in 200 μl of the ATCC recommended media were seeded in each well of a 96-well plate with a moisture barrier created in the outermost wells. The cells were allowed to attach overnight at 37° C., and then observed under phase contrast microscopy for proper morphological characteristics. […] Once incubations were complete, the spectrophotometric absorbance of the samples was measured at a wavelength of 595 nm. […] For the HepaRG assay, NoSpin HepaRG™ cells (Lonza, cat #NSHPRG) were thawed and plated with 20,000 cells per well. They were allowed to attach for 4 h (optimal DME profile per Lonza's testing) before dosing following the identical protocol as above.

[1] = test system: Francisella tularensis subsp. Holarctica Strain LVSR NR-597; test: microbe, parasite or virus in culture; format: cell-based
Bacillus subtilis = Bacillus subtilis MIC / MBC; format: cell-based; details: for MIC: Bacillus subtilis, Bacillus subtilis (Ehrenberg 1835) Cohn 1872 NRRL: B-571, read-out: MIC; for MBC: Bacillus subtilis NRRL: B-571, minimum bactericidal concentration
Candida glabrata = Candida glabrata MIC / MFC; format: cell-based; details: Nakaseomyces glabratus, Candida glabrata #584 (Table 2); for MIC: read-out: MIC; for MFC: minimum fungicidal concentration, read-out: MFC
[2] = test system: Burkholderia thailandensis Brett et al ATCC: 700388; test: microbe, parasite or virus in culture; format: cell-based
Bacillus thuringiensis = format: cell-based; details: Bacillus thuringiensis Berliner ATCC: 10792; for MIC: Bacillus thuringiensis, read-out: MIC
N. gonorrhoeae = N. gonorrhoeae MIC; format: cell-based; details: Neisseria gonorrhoeae, strain #167
[3] = test system: Francisella tularensis strains; test: microbe, parasite or virus in culture; format: cell-based
Trichophyton rubrum = test: MIC against Trichophyton rubrum; format: cell-based; details: Trichophyton rubrum Castellani Sabouraud ATCC: 28188; read-out: MIC

Structure (SMILES) | EC50 (NoSpin HepaRG cells) [µg/mL] | MIC [1] [µg/mL] | MIC (Bacillus subtilis) [µg/mL] | MIC (Candida glabrata) [µg/mL] | MBC [2] [µg/mL] | MIC [2] [µg/mL] | MBC (Bacillus thuringiensis) [µg/mL] | MIC (Bacillus thuringiensis) [µg/mL] | MBC (Bacillus subtilis) [µg/mL] | further results
CCc1ccccc1Sc1c(CO)[nH]c2ccc(C(F)(F)F)cc12 [Compound 177I, (3-((2-ethylphenyl)thio)-5-(trifluoromethyl)-1H-indol-2-yl)methanol] | 31.3 (≈ 89.1 µM) | 3.13 (≈ 8.91 µM) | 3.13 (≈ 8.91 µM) | > 50 | > 50 | > 50 | – | – | – | –
FC(F)(F)c1ccccc1Sc1c[nH]c2ccc(Br)cc12 [Compound 174AV, 5-bromo-3-((2-(trifluoromethyl)phenyl)thio)-1H-indole] | – | 1 (≈ 2.69 µM) | 1 (≈ 2.69 µM) | 25 (≈ 67.2 µM) | – | – | 1 (≈ 2.69 µM) | 1 (≈ 2.69 µM) | 2 (≈ 5.37 µM) | MIC (N. gonorrhoeae): 3.12 µg/mL (≈ 8.4 µM); MIC50 [3]: 4 µg/mL (≈ 10.7 µM); MIC ([3]; read-out: F. tularensis BSL-3 MIC, Strain 100): 6 µg/mL (≈ 16.1 µM); MIC ([3]; read-out: F. tularensis BSL-3 MIC, strain HN-63): 4 µg/mL (≈ 10.7 µM); MIC ([3]; read-out: F. tularensis BSL-3 MIC, strain LVS): 4 µg/mL (≈ 10.7 µM); MIC ([3]; read-out: F. tularensis BSL-3 MIC, strain MA00-2987): 3.67 µg/mL (≈ 9.86 µM); MIC ([3]; read-out: F. tularensis BSL-3 MIC, strain MO #1): 3 µg/mL (≈ 8.06 µM); MIC ([3]; read-out: F. tularensis BSL-3 MIC, strain MO #2): 2 µg/mL (≈ 5.37 µM); MIC ([3]; read-out: F. tularensis BSL-3 MIC, strain MO #3): 4 µg/mL (≈ 10.7 µM); MIC ([3]; read-out: F. tularensis BSL-3 MIC, strain OR-96): 4 µg/mL (≈ 10.7 µM); MIC ([3]; read-out: F. tularensis BSL-3 MIC, strain SCHU S4): 4 µg/mL (≈ 10.7 µM); MIC ([3]; read-out: F. tularensis BSL-3 MIC, strain WY-96): 4 µg/mL (≈ 10.7 µM); MIC ([3]; read-out: MAX, highest MIC over the Francisella tularensis strains): 6 µg/mL (≈ 16.1 µM); MIC ([3]; read-out: MIN, lowest MIC over the Francisella tularensis strains): 2 µg/mL (≈ 5.37 µM)
CCc1ccccc1Sc1c[nH]c2ccc(C(F)(F)F)cc12 [Compound 177G, 3-((2-ethylphenyl)thio)-5-(trifluoromethyl)-1H-indole] | 29.5 (≈ 91.8 µM) | 0.78 (≈ 2.43 µM) | 1.56 (≈ 4.85 µM) | > 50 | > 50 | > 50 | – | – | – | –
Fc1ccccc1Sc1c[nH]c2ccc(C(F)(F)F)cc12 [Compound 177D, 3-((2-fluorophenyl)thio)-5-(trifluoromethyl)-1H-indole] | 27.1 (≈ 87.1 µM) | 0.78 (≈ 2.51 µM) | 1.56 (≈ 5.01 µM) | 25 (≈ 80.3 µM) | > 50 | > 50 | – | – | – | –
Oc1ccc(Sc2c[nH]c3ccc(C(F)(F)F)cc23)cc1 [Compound 177B, 4-((5-(trifluoromethyl)-1H-indol-3-yl)thio)phenol] | 27.7 (≈ 89.6 µM) | 3.13 (≈ 10.1 µM) | 1.56 (≈ 5.04 µM) | > 50 | > 50 | 25 (≈ 80.8 µM) | – | – | – | –
Clc1ccc(Sc2c[nH]c3ccc(Br)cc23)c(Cl)c1 [Compound 174V, 5-bromo-3-((2,4-dichlorophenyl)thio)-1H-indole] | 24.8 (≈ 66.5 µM) | – | 1.25 (≈ 3.35 µM) | 3.13 (≈ 8.39 µM) | – | > 50 | 2.5 (≈ 6.7 µM) | 1.25 (≈ 3.35 µM) | 2.5 (≈ 6.7 µM) | MIC (Trichophyton rubrum): 0.58 µg/mL (≈ 1.55 µM); MFC (Candida glabrata): 12.5 µg/mL (≈ 33.5 µM)
Fc1ccc(Sc2c[nH]c3ccc(Br)cc23)cc1 [Compound 174P, 5-bromo-3-((4-fluorophenyl)thio)-1H-indole] | 38.3 (≈ 119 µM) | – | 1.56 (≈ 4.84 µM) | 3.13 (≈ 9.71 µM) | – | > 50 | > 50 | 1.56 (≈ 4.84 µM) | 3.13 (≈ 9.71 µM) | MIC (Trichophyton rubrum): 2.01 µg/mL (≈ 6.24 µM); MFC (Candida glabrata): > 50 µg/mL
